16 compounds from ChEMBL document CHEMBL6182944, “Substrate Specificity of the Organic Cation Transporters MATE1 and MATE2K and Functional Overlap with OCT1 and OCT2” (J Med Chem, 2025) can be followed below.

The Vmax is the top rate of the reaction or transport when substrate is in excess.

The target in data set [1] is T1, Multidrug and toxin extrusion protein 1 (Homo sapiens, UniProt Q96FL8).
T1 sequence (Q96FL8 whole entry): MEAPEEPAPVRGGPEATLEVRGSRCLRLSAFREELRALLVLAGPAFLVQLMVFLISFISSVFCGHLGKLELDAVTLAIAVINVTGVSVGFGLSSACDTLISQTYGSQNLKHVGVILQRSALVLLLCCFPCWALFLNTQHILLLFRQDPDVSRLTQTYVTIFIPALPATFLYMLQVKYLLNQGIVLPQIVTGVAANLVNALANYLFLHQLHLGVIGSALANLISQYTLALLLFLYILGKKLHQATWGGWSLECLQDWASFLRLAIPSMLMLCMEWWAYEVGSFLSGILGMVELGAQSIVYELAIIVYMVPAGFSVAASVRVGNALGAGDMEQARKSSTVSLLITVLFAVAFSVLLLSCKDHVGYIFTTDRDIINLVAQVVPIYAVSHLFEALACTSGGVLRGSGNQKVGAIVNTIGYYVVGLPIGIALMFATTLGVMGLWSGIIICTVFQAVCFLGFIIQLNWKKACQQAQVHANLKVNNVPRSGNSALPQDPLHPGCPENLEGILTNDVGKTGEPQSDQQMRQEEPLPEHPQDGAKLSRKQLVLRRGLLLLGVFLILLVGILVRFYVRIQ
Nature of the data set: Substrate activity at MATE1 (unknown origin) expressed in HEK293 cells assessed as increase in uptake by HPLC-MS/MS analysis. The data set is classed as cell-based.

For data set [2], the target named is T2, Multidrug and toxin extrusion protein 2 (Homo sapiens, UniProt Q86VL8).
T2 sequence (Q86VL8 whole entry): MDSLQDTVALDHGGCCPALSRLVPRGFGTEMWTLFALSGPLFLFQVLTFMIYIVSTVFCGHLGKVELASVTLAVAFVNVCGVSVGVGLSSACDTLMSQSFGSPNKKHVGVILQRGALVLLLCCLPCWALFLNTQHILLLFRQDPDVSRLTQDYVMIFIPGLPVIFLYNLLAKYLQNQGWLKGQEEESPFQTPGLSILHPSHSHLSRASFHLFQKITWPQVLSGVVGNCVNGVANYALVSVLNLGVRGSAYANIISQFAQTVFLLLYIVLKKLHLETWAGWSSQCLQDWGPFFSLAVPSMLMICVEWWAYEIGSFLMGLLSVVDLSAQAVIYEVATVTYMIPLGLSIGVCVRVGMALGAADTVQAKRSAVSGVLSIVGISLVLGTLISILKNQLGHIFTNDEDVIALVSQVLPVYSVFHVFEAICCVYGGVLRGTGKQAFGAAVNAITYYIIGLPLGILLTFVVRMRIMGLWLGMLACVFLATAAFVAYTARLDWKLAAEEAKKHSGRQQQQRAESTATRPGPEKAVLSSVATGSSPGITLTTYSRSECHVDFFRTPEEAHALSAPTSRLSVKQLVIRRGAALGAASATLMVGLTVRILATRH
The data set can be described thus: Substrate activity at MATE2-K (unknown origin) expressed in HEK293 cells assessed as increase in uptake by HPLC-MS/MS analysis. The data set is classed as cell-based.

For the next data set, the target named is T3, MATE1 (Homo sapiens, UniProt Q96FL8).
T3 sequence (Q96FL8 whole entry): T1 sequence (Q96FL8 whole entry)
Nature of the data set: in vitro.

The target of data set [3] is T1, Multidrug and toxin extrusion protein 1. Nature of the data set: Substrate activity at MATE1 (unknown origin) expressed in HEK293 cells assessed as Vmax (maximum transport velocity) by HPLC-MS/MS analysis. The data set is classed as cell-based.
A further data set has as its target T4, MATE2-K (Homo sapiens, UniProt Q86VL8).
T4 sequence (Q86VL8 whole entry): T2 sequence (Q86VL8 whole entry)
The data set can be described thus: in vitro.

Data set [4] concerns the target T2, Multidrug and toxin extrusion protein 2. Nature of the data set: Substrate activity at MATE2-K (unknown origin) expressed in HEK293 cells assessed as Vmax (maximum transport velocity) by HPLC-MS/MS analysis. It is filed as cell-based.
The target of data set [5] is T1, Multidrug and toxin extrusion protein 1. The data set can be described thus: Substrate activity at MATE1 (unknown origin) expressed in HEK293 cells assessed as intrinsic clearance by measuring ratio of Vmax (maximum transport velocity) over Km measured per mg of protein by HPLC-MS/MS analysis. The data set is classed as cell-based.
The target in data set [6] is T2, Multidrug and toxin extrusion protein 2. Nature of the data set: Substrate activity at MATE2-K (unknown origin) expressed in HEK293 cells assessed as intrinsic clearance by measuring ratio of Vmax (maximum transport velocity) over Km measured per mg of protein by HPLC-MS/MS analysis. It is filed as cell-based.
[7] abbreviates: HEK293 cells expressing MATE2-K.

Consider `O=C(O)c1cn(C2CC2)c2cc(N3CCNCC3)c(F)cc2c1=O` [CIPROFLOXACIN], for which the Activity result in data set [1] and in data set [2] was “Dose-dependent-effect” each time.
`c1c2c(cc3c1OCO3)-c1cc3ccc4c(c3c[n+]1CC2)OCO4` [COPTISINE]: the uptake ratio at 1 min, 2.5 µM at MATE1 (HEK293 cells expressing MATE1) and on MATE2-K (setting [7]) was over 2 each time. In addition, the Activity entry in data set [1] and in data set [2] was “Dose-dependent-effect” in each case. The maximum rate (Vmax) in data set [3] came to 2901 pmol/min.
`CN[C@@H]1CCc2[nH]c3ccc(C(N)=O)cc3c2C1` [FROVATRIPTAN]: the uptake ratio at 1 min, 2.5 µM on MATE1 (hek293) and at MATE2-K (hek293) was over 2 throughout. Further, the Activity result in data set [1] and in data set [2] was “Dose-dependent-effect” in each case. The Vmax in data set [4] was determined as 869 pmol/min; in data set [3], 4568 pmol/min. Also, the CL in data set [5] was found to be 64.9 µL/min; in data set [6], 77.8 µL/min.
Take `Nc1ccn([C@@H]2CS[C@H](CO)O2)c(=O)n1` [LAMIVUDINE]: the Activity entry in data set [1] and in data set [2] was “Dose-dependent-effect” in each case.
Take `CC(=O)OC(C)C[N+](C)(C)C` (stereo not given) [METHACHOLINE]: the uptake ratio at 1 min, 2.5 µM on MATE1 (hek293) and on MATE2-K (hek293) was over 2 each time. Moreover, the values for the Vmax in data set [4] and in data set [3] were 1240 pmol/min and 17843 pmol/min, respectively. The values for the CL in data set [5] and in data set [6] were 8.98 µL/min and 0.88 µL/min, respectively.
Consider `CN(C)C(=O)Oc1cccc([N+](C)(C)C)c1` [NEOSTIGMINE], for which the uptake ratio at 1 min, 2.5 µM at MATE1 (HEK293 cells expressing MATE1) and on MATE2-K (setting [7]) was over 2 throughout. In addition, the Activity entry in data set [1] and in data set [2] was “Dose-dependent-effect” each time. The CL in data set [5] worked out at 45.2 µL/min; in data set [6] it was 8.14 µL/min. Further, the Vmax in data set [3] worked out at 7255 pmol/min.
`NC[C@H](O)c1ccc(O)c(O)c1` [NOREPINEPHRINE]: the values for the maximal velocity (Vmax) in data set [4] and in data set [3] were 673 pmol/min and 18720 pmol/min, respectively. Moreover, the CL in data set [5] was determined as 10 µL/min; in data set [6], 0.59 µL/min.
`N=C(N)c1ccc(OCCCCCOc2ccc(C(=N)N)cc2)cc1` [PENTAMIDINE]: the Activity entry in data set [1] and in data set [2] was “Dose-dependent-effect” each time.
Take `[H]/N=C(/N)N/C(=N/[H])NCCc1ccccc1` [PHENFORMIN]: the uptake ratio at 1 min, 2.5 µM on MATE1 (hek293) and at MATE2-K (hek293) was over 2 throughout. Moreover, the Vmax in data set [4] was found to be 1361 pmol/min; in data set [3], 8451 pmol/min. The CL in data set [5] was 83.9 µL/min; in data set [6], 18.6 µL/min.
As to `CNC[C@H](O)c1cccc(O)c1` [PHENYLEPHRINE], the uptake ratio at 1 min, 2.5 µM on MATE1 (hek293) and on MATE2-K (hek293) was over 2 throughout. Moreover, the Vmax in data set [4] was 776 pmol/min; in data set [3] it was 11611 pmol/min. Further, the CL was determined as 24.5 µL/min in data set [5] and 1.79 µL/min in data set [6].
Take `Cc1ncc(CO)c(CN)c1O` [PYRIDOXAMINE]: the uptake ratio at 1 min, 2.5 µM was over 2 at MATE1 (hek293) and under 2 at MATE2-K (hek293). In addition, the Vmax is given as 989.5 pmol/min in data set [4] and 5442 pmol/min in data set [3]. Moreover, the CL in data set [5] worked out at 3.23 µL/min; in data set [6], 0.64 µL/min.
As for `Cc1cc2nc3c(=O)[nH]c(=O)nc-3n(C[C@H](O)[C@H](O)[C@H](O)CO)c2cc1C` [RIBOFLAVIN], the Activity result in data set [1] and in data set [2] was “Dose-dependent-effect” in each case.
Consider `COCCn1c2c([n+](Cc3cnccn3)c1C)C(=O)c1ccccc1C2=O` [SEPANTRONIUM], for which the uptake ratio at 1 min, 2.5 µM on MATE1 (HEK293 cells expressing MATE1) and on MATE2-K (setting [7]) was over 2 throughout. Moreover, the Activity entry in data set [1] and in data set [2] was “Dose-dependent-effect” each time. The CL in data set [5] stood at 3.76 µL/min; in data set [6], 9.19 µL/min. For the same compound, the Vmax in data set [3] is on record as 304 pmol/min.
On to `CCN1CCCC1CNC(=O)c1cc(S(N)(=O)=O)ccc1OC` (stereo not given) [SULPIRIDE], for which the Vmax is on record as 1025 pmol/min in data set [4] and 851 pmol/min in data set [3]. Further, the CL was 53.2 µL/min in data set [5] and 44.9 µL/min in data set [6].
For the compound `Cc1ncc(C[n+]2csc(CCO)c2C)c(N)n1` [THIAMINE ION], the uptake ratio at 1 min, 2.5 µM on MATE1 (hek293) and on MATE2-K (hek293) was over 2 throughout. For the same compound, the Activity entry in data set [1] and in data set [2] was “Dose-dependent-effect” each time. For the same compound, the CL in data set [5] was determined as 34.9 µL/min; in data set [6], 6.32 µL/min. Moreover, the Vmax in data set [3] came to 599 pmol/min.
Turning to `NCCc1ccc(O)cc1` [TYRAMINE], the figures for the uptake ratio at 1 min, 2.5 µM at MATE1 (hek293) and on MATE2-K (hek293) were over 2 and under 2, respectively. The Vmax in data set [4] is 2868 pmol/min; in data set [3], 5948 pmol/min. Besides, the CL is 43.6 µL/min in data set [5] and 2.71 µL/min in data set [6].
